# Source: article PMC11511194, “Key Factors for Improving Predictive Accuracy and Avoiding Overparameterization of the PBPK Absorption Model in Food Effect Studies of Weakly Basic Water-Insoluble Compounds in Immediate Release Formulations” (Pharmaceutics, 2024)
# Read-outs that look alike come from different tables or passages of the source.
# Columns and labels:
# [1] = set-up: method as in earlier work; conditions: optimized rivaroxaban model input, cited from earlier work
# [2] = Equilibrium solubility of APIs in aqueous and biorelevant media; format: physicochemical; conditions: 37 °C
# Protocol: To evaluate the effect of pH and bile salt concentration within the physiological range on the solubility of APIs, the equilibrium solubility of APIs in various aqueous and biorelevant media was comprehensively investigated. Specifically, aqueous buffers, including pH 1.0 and pH 2.0 HCl solutions; pH 3.0 and pH 4.5 acetum; and pH 5.0, pH 6.5, and pH 8.0 phosphate buffer solutions (PBS), were prepared according to the guidelines outlined in the Chinese Pharmacopoeia. Additionally, biorelevant media such as FaSSGF, FaSSIF, and FeSSIF were prepared following the prescribed method for biorelevant power. An excess amount of solid drug powder was added to vials containing 20 mL of the corresponding medium, and tests were conducted with continuous stirring at 37 °C for 24 h. Drug concentration was detected every minute through an in situ fiber-optic UV dissolution real-time monitoring system (Pion Scientific Instruments, Billerica, MA, USA). All measurements were performed in triplicate.
# [3] = test system: CYP2J2; experiment: CYP2J2 intrinsic clearance fitted in PBPK model; conditions: Fitted to in vivo metabolic fraction and SAD C-T profiles
# Text: (§1) S2. PBPK model development and validation physicochemical parameters for these three model drugs, including protein binding and Blood-to-Plasma (B/P) ratio, were obtained from experimental results, while log P and pKa were estimated based on the molecular formula using Gastro Plus ADMET software (version 10.3, […]
# (§2) S2.1. Rivaroxaban PBPK model development and validation
# (§3) S2.1.1. Rivaroxaban PBPK model development for metabolism and elimination module […]
# (§4) its systemic clearance, CLint_CYP3A4, CLint_CYP2J2 and CLHLM were fitted according to the metabolic fraction of rivaroxaban in vivo and concentration-time profiles from the SAD clinical trial in Caucasian subjects under fasted state. […]
# (§5) permeability-limited kidney and liver models were employed to account for the active efflux […]
# (§6) Physicochemical properties
# [4] = Dissolution tests of formulations in biorelevant media (USP 2); format: physicochemical; conditions: formulation, 500 and 900 mL FaSSIF or FeSSIF media
# Protocol: Dissolution tests employing biorelevant media have gained widespread utilization in formulation development, offering valuable insights into the behavior of APIs and their respective formulations within the GI tract. In this study, dissolution behavior was assessed using the calibrated USP 2 apparatus (Pion Scientific Instruments, Billerica, MA, USA) across various media, including FaSSGF, FaSSIF, and FeSSIF. The fasted gastric environment was simulated with 300 mL of FaSSGF medium, while FaSSIF and FeSSIF media were used to mimic the intestinal conditions under fasted and fed states, with volumes of 500 and 900 mL, respectively. Dissolution experiments were conducted at a paddle speed of 75 rpm, with the medium temperature maintained at 37 ± 0.5 °C. Sample concentrations were monitored at 1 min intervals via an in situ fiber-optic UV dissolution real-time monitoring system. All experiments were conducted in triplicate.
# [5] = test system: ABCB1 (P-gp/MDR1); experiment: P-gp efflux clearance in kidney and liver fitted in PBPK model; conditions: human, permeability-limited liver model, Canalicular, read-out: CLint,T
# Text: as §1, §2, §3, §4, §5, §6
# [6] = in vivo, cited from earlier work
# [7] = physchem; conditions: for User log K m:w, ion / User log K m:w, neutral: bile micelle to buffer partition, Evaluated by SIVA software
# Protocol: In this manuscript, PBPK absorption models were developed using SimCYP software (version 20, Sheffield, UK, Certara Company), while the primary solubility parameters were evaluated utilizing SIVA software (version 4, Sheffield, UK, Certara Company). The comprehensive process of parameter evaluation is as follows: Intrinsic solubility (So) and salt limiting solubility factor (SF) values were obtained according to the solubility of the API in different aqueous media and the Henderson–Hasselbalch equation (Equation (1)). Subsequently, the bile micelle to buffer partition coefficients (Km:w) in both ionized (Km:w, ionized) and un-ionized (Km:w, un-ionized) states were evaluated based on the solubility of the APIs in FaSSGF, FaSSIF, and FeSSIF media, employing Equation (1). (1) STot=So×Soscalart×1+BSt/CH2O×Km:w, un-ionized+Sit×1+BSt/CH2O×Km:w, ionized+Sbound,excipt where t is the time; STot is the total solubility of the drug in a given medium (aqueous or biorelevant medium); So is the intrinsic solubility of the drug; Soscalar is the scalar for So used to capture the increased solubility of the drug in a given medium; Si is the ionized aqueous solubility; [BS] is the bile salt concentration in a given biorelevant medium; CH2O is the concentration of water; Km:w, ionized/un-ionized are the bile micelle/buffer partition coefficients for ionized and un-ionized species, respectively; and Sbound, excip is the amount of drug bound to the excipient at a given excipient concentration.
# [8] = Passive diffusion clearance and unbound fractions of permeability-limited kidney and liver models; conditions: Liver, Fitted
# Text: as §1, §2, §3, §4, §5, §6
# [9] = ticagrelor; supplement ref 17; cited from earlier work
# [10] = Apparent permeability assay in biorelevant media (PAMPA); format: in vitro ADME; conditions: for PAMPA: optimized ticagrelor model input; for Papp: PAMPA, parallel artificial membrane
# Protocol: In light of observed distinctions in the apparent permeability of drugs in biorelevant media compared to standard media, the apparent permeability of ticagrelor in FaSSIF and FeSSIF media was measured using the published method with the parallel artificial membrane. The apparent permeability of rivaroxaban and PB-201 (Drug-A) in biorelevant media was referenced from the published results.
# [11] = HCl solution, simulated gastric fluid, thermodynamic from solid, pH 1.0 HCl
# [12] = HCl solution, simulated gastric fluid, thermodynamic from solid, pH 2.0 HCl
# [13] = aqueous buffer, thermodynamic from solid, pH 3.0 Acetic acid buffer
# [14] = aqueous buffer, thermodynamic from solid, pH 4.5 Acetic acid buffer
# [15] = phosphate buffer solution (PBS), aqueous buffer, thermodynamic from solid, pH 5.0 PBS
# [16] = phosphate buffer solution (PBS), pH 6.5 PBS
# [17] = phosphate buffer solution (PBS), pH 8.0 PBS
# [18] = thermodynamic from solid, pH 5.0 FeSSIF
# [19] = thermodynamic from solid, pH 6.5 FaSSIF
SMILES,"solubility thermodynamic at 24 h [2, 11] [µg/mL]","solubility thermodynamic at 24 h [2, 12] [µg/mL]","solubility thermodynamic at 24 h [2, 13] [µg/mL]","solubility thermodynamic at 24 h [2, 14] [µg/mL]",solubility thermodynamic at 24 h ([2]; pH 1.6 FaSSGF) [µg/mL],"solubility thermodynamic at 24 h [2, 15] [µg/mL]","solubility thermodynamic at 24 h [2, 16] [µg/mL]","solubility thermodynamic at 24 h [2, 17] [µg/mL]","solubility thermodynamic at 24 h [2, 18] [µg/mL]","solubility thermodynamic at 24 h [2, 19] [µg/mL]","User log K m:w, ion [7]","User log K m:w, neutral [7]",also measured
O=C(NC[C@H]1CN(c2ccc(N3CCOCC3=O)cc2)C(=O)O1)c1ccc(Cl)s1 [Rivaroxaban],6.84,8.18,10.6,6.55,7.5,4.85,5.84,5.87,10.6,6.17,3.894,3.330,PAMPA ([1]; Fasted (FaSSIF)): 52.6 10E-06 cm/s; PAMPA ([1]; Fed (FeSSIF)): 40.80 10E-06 cm/s; Intrinsic clearance of CYP 2J2 [3]: 2.500 µL/min/pmol; dissolution percentages [4]: below 80%; hepatocyte CLint [5]: 0.03 µL/min/1e6 cells; metabolic fraction of CYP2J2 to the systemic clearance ([6]; supplement ref 1): about 14%; metabolic fraction of CYP3A4 to the systemic clearance ([6]; supplement ref 1): approximately 18%; parent drug directly excreted by the kidney ([6]; supplement ref 1): about 36%; parent drug directly excreted by the liver ([6]; supplement ref 1): ~7%; contribution of liver hydrolases to systemic clearance ([6]; supplement ref 2): about 14%; solubility ([7]; aqueous buffer): 5 µg/mL; fuIW [8]: 0.193
CCCSc1nc(N[C@@H]2C[C@H]2c2ccc(F)c(F)c2)c2nnn([C@@H]3C[C@H](OCCO)[C@@H](O)[C@H]3O)c2n1 [Ticagrelor],18,8.04,11.6,7.47,14.2,6.35,5.97,5.52,4050,306,8.226,5.941,CLR typical renal clearance [9]: 0.00584 L/h; PAMPA ([10]; Fasted (FaSSIF)): 90.2 10E-06 cm/s; PAMPA ([10]; Fed (FeSSIF)): 14.30 10E-06 cm/s; Papp ([10]; FaSSIF): 90.2 ×10⁻⁶ cm/s; Papp ([10]; FeSSIF): 14.3 ×10⁻⁶ cm/s
